Experiment [1] deals with Pol II pausing. As to the kind of experiment: total Pol II ChIP-seq upon auxin, JQ1, dBET6 or NVP-2 treatment. Type of experiment: cell-based, human. Particulars: BRD4-IAA7 cells; for Pol II pausing (Pol II occupancy profile): auxin 500 uM, JQ1 1 uM, dBET6 250 nM, 3 h; for gene-by-gene log 2PRR correlation with auxin treatment: scatter plot. The source says:
FIG. 1A illustrates the updated BRD4-IAA7 degron line. The F-box protein AtAFB2 was integrated into the C terminus of the BRD4 locus under the control of an independent promoter. […] These treatment concentrations/durations are relevant to all of FIG. 1. […] The gene list (N=6481) in this analysis is used throughout the study (except for FIGS. 3H-J). FIG. 1D illustrates the estimated Cumulative Density Function (ECDF) of pause release ratios (PRR, reported as log 2 fold change) for auxin treatment vs untreated control. The PRR is the ratio of Pol II occupancy within gene bodies to its occupancy at promoters. A leftward shift of the curve indicates an increase in the frequency and/or duration of promoter-proximal pausing, while a rightward shift indicates reduced pausing and/or more efficient release into gene bodies.
FIGS. 8A-8E. collectively illustrate the differences in Pol II pausing induced by BRD4 depletion and bromodomain inhibition, related to FIG. 1. FIG. 8A illustrates the western blot showing the expression of HA-tagged AtAFB2 and the auxin-induced degradation of V5-tagged BRD4 using anti-tag antibodies. FIG. 8B illustrates the western blot comparing the BRD4 protein expression level and degradation kinetics of the previously published BRD4-AID degron to those of the BRD4-IAA7 degron used in this study 12. Note: in FIGS. 8A and 8B, the BRD4-IAA7 clone used is D4 (Hygromycin selected); it is G3 (Neomycin selected) otherwise in the study. […] FIG. 8E illustrates the track examples of Pol II ChIP-seq signal at the HSPA8 and GAPDH loci upon NVP-2 treatment (2 h) and corresponding heatmaps showing Pol II occupancy profiles and fold change in occupancy vs control upon NVP-2 treatment.
To specifically deplete BRD4 without affecting other BET proteins, we generated an updated BRD4 degron line by modifying the published miniIAA7 degron system (hereafter BRD4-IAA7) to reduce basal degradation seen with AID degron-tagged BRD4^30 (FIGS. 1A and 8A).
DLD1 cells were crosslinked with 15 ml 1% PFA (ThermoFisher, #28908) in PBS on 15 cm plates for 10 minutes at RT and quenched by the addition of 2 ml 2.5M glycine followed by shaking for 5 minutes. Crosslinked cells were collected by scraping. Chromatin sonication was performed for 10 minutes using a Covaris E200 set to 10% duty factor, 200 cycles per burst, and 140 peak intensity power. For endogenous protein ChIP, 10-20% of mouse embryonic fibroblasts (MEF) chromatin (prepared the same way as in DLD1 cells) was added to each sample as a spike-in control. For overexpressed protein ChIP, such as GFP-ChIP, 20 ng spike-in chromatin (Active Motif, #53083) and 2 ug spike-in antibody (Active Motif, #61686) were added to each sample. Immunoprecipitation was carried out at 4° C. overnight using 5ul of Rpb1 (Cell Signaling Technology, #D8L4Y), 5ul of Ser2p (Active Motif, #61984), 10ul of CCNT1 (Cell Signaling Technology, #81464), 10ul of CDK9 (Santa Cruz Biotechnology, #sc-13130 X) antibodies, or 200ul of a cocktail consisting of 50ul of each GFP antibody (DSHB, #GFP-G1, #GFP-12A6, #GFP-12E6, #GFP-8H11). Immune complexes were enriched with Protein G-coupled Dynabeads (Invitrogen, #10004D) at 4° C. for >=4 h, and incubated with proteinase K (Roche, #3115828001) to reverse crosslink at 65° C. overnight. Eluted DNA was purified with the QIAquick PCR Purification Kit (Qiagen, #28106), and libraries were prepared using the KAPA HTP library preparation kit (Roche, #07961901001) for sequencing on the NovaSeq 6000.
Reads were aligned to hg38 with bowtie 1/250. Genes (N=6,481) with pausing site and TES annotation were obtained from a previously published study51. Promoter regions were designated as spanning from 100 bp upstream to 300 bp downstream of the pausing site. Gene body regions were designated as spanning from 300 bp downstream of the pausing site to the TES. FeatureCounts 2.0.152 was used to calculate the total mapped reads from Pol II ChIP-seq at promoters and within gene bodies. […]

Experiment [2] deals with T1, BRDT (Homo sapiens, UniProt Q58F21).
T1 construct: endogenous in cells; host or cells: NCIH2009
As to the kind of experiment: Western blot of dBET6 treatment in NCIH2009 cells (BRDT). Type of experiment: cell-based. As to conditions: dBET6 3 h. An excerpt: FLAG antibody (#F1804) was obtained from Millipore Sigma. […] H3 antibody was generated in-house.
A general note: In western blotting, separated proteins are transferred to a membrane and probed.

Experiment [3] concerns Ser2P. As to the kind of experiment: Ser2P ChIP-seq upon JQ1 or dBET6 treatment. The experiment is classed as cell-based, human. As to conditions: BRD4-IAA7 cells; series concentration of JQ1 or 250 nM dBET6, 3 h. As for the experimental part: (§1) FIGS. 5A-5J collectively illustrate the identification of a distinct BRD4-PTEFb population, which is active but not histone acetylation-bound. FIG. 5A illustrates the track examples for AID ChIP-seq in the BRD4-AID line and CCNT1 ChIP-seq in the BRD4-IAA7 line with/without auxin treatment (3 h). H3K27ac ChIP-seq signal in the BRD4-AID line is shown for comparison. FIG. 5B illustrates the heatmap showing the genome-wide BRD4 and CCNT1 occupancy profile and the corresponding fold change upon auxin treatment for the conditions in A. Genes ranked by BRD4 signal in control. FIG. 5C illustrates the scatter plot showing the relative promoter density of CCNT1 vs BRD4, calculated by the log 2RPKM of the ChIP-seq signals at the regions flanking (±1 Kb) the Pol II pausing sites. FIG. 5D illustrates the track examples for GFP ChIP-seq signal upon induction of GFP-tagged BRD4-FL or the indicated mutants (left). Heatmap showing the genome-wide fold changes of the GFP-tagged BRD4 mutants relative to the vector (right). The endogenous BRD4 was depleted by auxin treatment (3 h) in all samples. Genes are ranked by GFP signal in the GFP-BRD4-FL condition. FIG. 5E illustrates the track examples for CCNT1 ChIP-seq signal upon endogenous BRD4 depletion and rescue with indicated GFP-tagged mutants (left). Heatmap showing the genome-wide CCNT1 fold changes (right). […]

Experiment [4] relates to Pol II pausing. Particulars: reference 21; cited from earlier work.
Experiment [5] has as its system CCNT1. Nature of the experiment: CCNT1 ChIP-seq with increasing concentrations of JQ1. Type of experiment: cell-based, human. Particulars: BRD4-IAA7 cells; series concentration of JQ1, 3 h. As for the experimental part: as §1

For `Cc1sc2c(c1C)C(c1ccc(Cl)cc1)=N[C@@H](CC(=O)NCCCCCCCCNC(=O)COc1cccc3c1C(=O)N(C1CCC(=O)NC1=O)C3=O)c1nnc(C)n1-2` (some centres unmarked) [dBET6], in experiment [1], the “Pol II pausing (Pol II occupancy profile)” value is recorded as “inducing pausing at the majority of Pol II-transcribed genes” and the “gene-by-gene log 2PRR correlation with auxin treatment” value is recorded as “much stronger”. Also, in experiment [2], the “degradation of endogenous BRDT” value is listed as “degraded”. Moreover, in experiment [3], the “Ser2P ChIP-seq signals” value is “Ser2P signal fade away”. Besides, the “effect on Pol II pausing (RNA-seq, NET-seq)” value in experiment [4] is on record as “dramatic, genome-wide increase in paused Pol II at promoters”.

As for `Cc1sc2c(c1C)C(c1ccc(Cl)cc1)=N[C@@H](CC(=O)OC(C)(C)C)c1nnc(C)n1-2` [JQ1], the “effect on pausing at super enhancer-controlled genes such as Myc” value in experiment [1] (MYC locus) is listed as “notable”. Besides, in experiment [1], the “Pol II pausing (Pol II occupancy profile)” value is “induced little to no pausing” and the “gene-by-gene log 2PRR correlation with auxin treatment” value is reported as “poorly correlated”. The “CCNT1 ChIP-seq signals” value in experiment [5] is recorded as “decreased dramatically with increasing concentrations”. For the same molecule, the “Ser2P ChIP-seq signals” value in experiment [3] is given as “minimal”. Moreover, in experiment [4], the “effect on Pol II pausing (RNA-seq, NET-seq)” value is “only a modest effect on Pol II pausing”.
